We go through 4 compounds from PMC6541264, “Molecular mechanisms involved in drug-induced liver injury caused by urate-lowering Chinese herbs: A network pharmacology study and biology experiments” (PLoS ONE, 2019).

Type in all cases: cell-based, human
Data set [1] can be described thus: MTT assay, cell viability of L-02 cells. The note with it: human, L-02 (L02) normal hepatic cells, L-02, MTT, 24 h, read-out: cells viabilityrate. Here is the method: (§1) The normal hepatic cell (L02) cell lines were obtained from the National Infrastructure of Cell Line Resources (Chinese Academy of Medical Sciences, Beijing, China), and maintained in Dulbecco’s modified Eagle’s medium (DMEM, 10-013-CVR) supplemented with 10% fetal bovine serum (FBS, Hyclone), 1% penicillin and streptomycin (PS, 100 IU/ml penicillin, 100 μg/ml streptomycin, Mediatech, 30-002-CI). All cells were incubated in a humidified atmosphere at 37°C with 5% CO2.
(§2) L-02 cells were trypsinized by 0.25% trypsin after reaching the confluence of 70–80% and plated in 96-well plates at the density of 1.6 × 10^3 […]. And L-02 cells were cultured for 24 hours in vitro before exposure to varying concentrations of different representative compounds with liver injury for further incubating in another 24 hours. Then, 20 μl of 0.25 mg/ml3-(4,5-dimethylthiazol-2-yl)-2,5-diphenyltetrazolium bromide (MTT)-tetrazolium salts (Sigma-Aldrich Corp., St. Louis, MO, USA) in PBS was added to each hole in 96-well plates. After 4 hours of incubation, the formazan crystals were dissolved by 150μl Dimethyl Sulphoxide (DMSO), and shocked to dissolve thoroughly, then the cell viability was measured by MTT method at 570 nm. All experiments were repeated in triplicate independently.

For data set [2], the system named is L-02 cells. The experiment in a line: MTT assay, cell viability of L-02 cells. Here is the method:
as §1, §2
A general note: Tetrazolium dyes change colour on reduction, which living cells bring about.

Data set [3] concerns L-02 cells. Put plainly: Biochemical indicators of hepatotoxicity (ALT, AST, LDH, ALP activity) of L-02 cells, without and with p38 inhibitor SB203580. The procedure: as §1
To determine how potential liver injury-compounds affected biochemical indicators of L-02 cells, we investigated the activities of AST, ALT, LDH and ALP in cell migration capacity under the different representative compounds conditions (representative compounds group), the inhibitor conditions (inhibitor group), and the negative control. For these experiments, three replicates were made for each concentration of the different representative compounds with liver injury, and each group was established three holes and cultured in 6 times repeatedly. […] Subsequently, the supernatant extraction of L02 cells was collected and centrifuged to detect the activities of AST, ALT, LDH, and ALP by chromatometry method.
To further and fully elucidating the mechanism of the liver injury caused by the representative compounds from urate-lowering Chinese herbs, we chose the p38α inhibitor, SB203580 to verify our findings. […] The specific composition information was shown in S2 Table. […] The Specific specific composition information is was shown in S4 Table.

The next data set concerns p38α. The experiment in a line: Western blot, expression of p-p38α/p38α in L-02 cells, without and with inhibitor SB203580. The note with it: for ratios of p-p38α/p38α expression compared with the blank groups, in words: L-02, 10μmol/L diosgein, 2000μmol/L baicalin, 60μmol/L terandrine, 6μmol/L evodiamine. From the text: After the examination of biochemical indicators for hepatotoxicity in the cell, the expression of crucial liver injury protein in L02 cell lines among different groups was compared by Western blot analysis. Briefly, the proteins from different groups were harvested and lysed using lysis buffer (Sigma-Aldrich) containing a proteinase inhibitor cocktail (Sigma-Aldrich), the equal amounts of protein were separated by electrophoresis on a pre-cast 10% SDS-polyacrylamide gel (Bio-Rad, Hercules, CA) and transferred to polyvinylidene difluoride membranes (Millipore, Bedford, MA). Next, the membrane was blocked in TBST-T containing 5% skim milk for 2 h at room temperature and probed with anti-beta-catenin, and incubated overnight with the indicated primary antibody, followed by incubation with the secondary antibodies at room temperature for another 2 h. Finally, all the immune blots were visualized by enhanced chemiluminescence (Pierce Biotechnology, Inc., Rockford, IL, USA) and western blots were performed at least three times.
According to the results of network pharmacology, we examined the expression levels of p38α. […] The Specific specific composition information is was shown in S3 Table. […] However, the mechanism of saikosaponin D causing liver injury still remained unclear.
To further and fully elucidating the mechanism of the liver injury caused by the representative compounds from urate-lowering Chinese herbs, we chose the p38α inhibitor, SB203580 to verify our findings. Seemingly, the ALT, AST, ALP, and LDH activities of each group decreased to varying degrees under the influence of inhibitor. The specific composition information was shown in S2 Table. […] The Specific specific composition information is was shown in S4 Table.
Background: Immunoblotting shows a protein as a band on a membrane.

Where [4] appears, read: S2 Table, L-02, 1000μmol/L+inhibitor (SB203580).
Setting [5] is: S2 Table, L-02, 1000μmol/L, no inhibitor.
Where [6] appears, read: S2 Table, L-02, 2000μmol/L+inhibitor (SB203580).
Setting [7] is: S2 Table, L-02, 2000μmol/L, no inhibitor.
Where [8] appears, read: Table 5, L-02 supernatant, 24 h, 1000μmol/L.
[9] abbreviates: Table 5, L-02 supernatant, 24 h, 2000μmol/L.
The mark [10] stands for this setting: S2 Table, L-02, 5μmol/L+inhibitor (SB203580).
Where [11] appears, read: S2 Table, L-02, 5μmol/L, no inhibitor.
Where [12] appears, read: S2 Table, L-02, 10μmol/L+inhibitor (SB203580).
The mark [13] stands for this setting: S2 Table, L-02, 10μmol/L, no inhibitor.
[14] abbreviates: Table 5, L-02 supernatant, 24 h, 5μmol/L.
[15] abbreviates: Table 5, L-02 supernatant, 24 h, 10μmol/L.
Setting [16] is: Table 5, L-02 supernatant, 24 h, 15μmol/L.

Consider `O=C(O)[C@H]1O[C@@H](Oc2cc3oc(-c4ccccc4)cc(=O)c3c(O)c2O)[C@H](O)[C@@H](O)[C@@H]1O` [Baicalin], for which the viability at 24 h, 1000 μmol/L in data set [1] (1000 μmol/L) came out at 154 ± 21.1%. Also, in data set [1] (2000 μmol/L), the viability at 24 h, 2000 μmol/L is 98.6 ± 16.5%. The “effect on L-02 (MTT), in words” value in the data set with L-02 cells [2] (dose of 2000μmol/L) is “trend of proliferative effects”. In addition, the ALP is listed as 0.70± 0.05 King's unit /100ml in the data set with L-02 cells [3] (setting [4]); 0.86± 0.06 King's unit /100ml in the data set with L-02 cells [3] (setting [5]); 0.85± 0.06 King's unit /100ml in the data set with L-02 cells [3] (setting [6]); 0.92± 0.13 King's unit /100ml in the data set on L-02 cells [3] (setting [7]); 2.03±0.44 King's unit /100ml with L-02 cells [3] (setting [8]); 1.94±0.21 King's unit /100ml in the data set on L-02 cells [3] (setting [9]). Moreover, the ALT with L-02 cells [3] (setting [4]) stood at 1.88± 0.20 U/L; with L-02 cells [3] (setting [5]), 2.24± 0.30 U/L; in the data set with L-02 cells [3] (setting [6]) it was 2.27± 0.32 U/L; in the data set on L-02 cells [3] (setting [7]), 2.01± 0.20 U/L; in the data set with L-02 cells [3] (setting [8]) it was 4.45±1.09 U/L; with L-02 cells [3] (setting [9]), 4.48±0.13 U/L. In addition, the AST in the data set with L-02 cells [3] (setting [4]) worked out at 4.12± 0.26 U/L; in the data set on L-02 cells [3] (setting [5]) it was 4.45± 1.09 U/L; with L-02 cells [3] (setting [6]), 4.38± 0.84 U/L; in the data set with L-02 cells [3] (setting [7]), 4.48± 0.13 U/L; with L-02 cells [3] (setting [8]), 690.76±33.24 U/L; in the data set with L-02 cells [3] (setting [9]), 824.64±39.22 U/L. Further, the LDH in the data set on L-02 cells [3] (setting [4]) was 778.83± 14.65 U/L; in the data set on L-02 cells [3] (setting [5]) it was 699.84± 33.81 U/L; in the data set with L-02 cells [3] (setting [6]), 981.04± 3.87 U/L; in the data set with L-02 cells [3] (setting [7]), 840.44± 32.45 U/L; with L-02 cells [3] (setting [8]), 0.81±0.10 U/L; in the data set with L-02 cells [3] (setting [9]) it was 0.84±0.18 U/L. Further, the “ratios of p-p38α/p38α expression compared with the blank groups, in words” value in the data set on p38α is listed as “increased”. Moreover, the p-p38α/p38α with p38α (S3 Table, L-02, 24 hours of incubation, 1000μmol/L) is 1.24±0.29; in the data set with p38α (S3 Table, L-02, 24 hours of incubation, 2000μmol/L), 2.06±0.66; in the data set on p38α (S4 Table, L-02, 24 hours, 1000μmol/L+inhibitor (SB203580)) it was 0.76±0.15; with p38α (S4 Table, L-02, 24 hours, 1000μmol/L, no inhibitor), 1.25±0.24; with p38α (S4 Table, L-02, 24 hours, 2000μmol/L+inhibitor (SB203580)) it was 0.26±0.03; in the data set on p38α (S4 Table, L-02, 24 hours, 2000μmol/L, no inhibitor), 1.08±0.6.
For the compound `O=c1c2ccccc2nc2n1CCc1c-2[nH]c2ccccc12` [Rutaecarpine], in data set [1] (5 μmol/L), the viability at 24 h, 5 μmol/L stood at 92.7 ± 3.74%. In addition, the viability at 24 h, 10 μmol/L in data set [1] (10 μmol/L) is 81.3 ± 6.29%. Besides, the viability at 24 h, 15 μmol/L in data set [1] (15 μmol/L) turned out to be 80.5 ± 3.9%. Moreover, the “cell viability of L-02 (MTT), in words” value in the data set on L-02 cells [2] (dose of 5μmol/L) is recorded as “good potency inhibitor against the cell viability”. Also, the ALP is on record as 1.13± 0.12 King's unit /100ml in the data set with L-02 cells [3] (setting [10]); 1.63± 0.03 King's unit /100ml with L-02 cells [3] (setting [11]); 1.39± 0.28 King's unit /100ml in the data set with L-02 cells [3] (setting [12]); 1.07± 0.14 King's unit /100ml in the data set with L-02 cells [3] (setting [13]); 5.77±0.54 King's unit /100ml with L-02 cells [3] (setting [14]); 5.67±0.12 King's unit /100ml with L-02 cells [3] (setting [15]). Moreover, in the data set on L-02 cells [3] (setting [16]), the ALP is listed as 5.54±0.57 King's unit /100ml. In addition, the ALT in the data set on L-02 cells [3] (setting [10]) came to 5.01± 0.13 U/L; with L-02 cells [3] (setting [11]), 6.00± 0.43 U/L; in the data set on L-02 cells [3] (setting [12]) it was 5.63± 0.09 U/L; in the data set on L-02 cells [3] (setting [13]) it was 5.67± 0.12 U/L; with L-02 cells [3] (setting [14]), 9.90±0.99 U/L; in the data set with L-02 cells [3] (setting [15]), 8.81±1.85 U/L. This compound returned an ALT with L-02 cells [3] (setting [16]) of 9.33±1.85 U/L. Moreover, the AST in the data set with L-02 cells [3] (setting [10]) is reported as 9.25± 1.09 U/L; in the data set on L-02 cells [3] (setting [11]), 10.33± 0.74 U/L; in the data set with L-02 cells [3] (setting [12]) it was 10.52± 0.97 U/L; in the data set on L-02 cells [3] (setting [13]), 9.81± 0.74 U/L; in the data set on L-02 cells [3] (setting [14]), 1075.18±91.40 U/L; in the data set on L-02 cells [3] (setting [15]), 1127.68±56.72 U/L. In addition, the AST with L-02 cells [3] (setting [16]) worked out at 1000.00±61.27 U/L. The LDH stood at 1193.32± 3.90 U/L in the data set on L-02 cells [3] (setting [10]); 1105.81± 85.95 U/L in the data set with L-02 cells [3] (setting [11]); 1217.18± 41.25 U/L in the data set with L-02 cells [3] (setting [12]); 1155.13± 35.72 U/L in the data set with L-02 cells [3] (setting [13]); 1.62±0.04 U/L with L-02 cells [3] (setting [14]); 1.54±0.36 U/L in the data set on L-02 cells [3] (setting [15]). Moreover, the LDH in the data set with L-02 cells [3] (setting [16]) amounted to 1.71±0.16 U/L.
Turning to `C[S+]([O-])c1ccc(-c2nc(-c3ccncc3)c(-c3ccc(F)cc3)[nH]2)cc1` (centres unmarked) [SB203580, reference compound], the “effect on component-induced cell damage of L-02 cells, in words” value in the data set on L-02 cells [3] (SB203580 at the dose of 20μmol/L added to components) is “attenuate the component-induced cell damage”.
With Evodiamine, the “ratios of p-p38α/p38α expression compared with the blank groups, in words” value in the data set with p38α is given as “increased”. In addition, the p-p38α/p38α turned out to be 1.13±0.33 in the data set with p38α (S3 Table, L-02, 24 hours of incubation, 5μmol/L); 1.39±0.34 with p38α (S3 Table, L-02, 24 hours of incubation, 6μmol/L); 1.03±0.48 in the data set on p38α (S3 Table, L-02, 24 hours of incubation, 7μmol/L); 0.82±0.02 in the data set on p38α (S4 Table, L-02, 24 hours, 5μmol/L+inhibitor (SB203580)); 1.74±0.42 in the data set with p38α (S4 Table, L-02, 24 hours, 5μmol/L, no inhibitor); 0.47±0.03 with p38α (S4 Table, L-02, 24 hours, 10μmol/L+inhibitor (SB203580)). Besides, the p-p38α/p38α with p38α (S4 Table, L-02, 24 hours, 10μmol/L, no inhibitor) is 1.45±0.29; in the data set on p38α (S4 Table, L-02, 24 hours, 15μmol/L+inhibitor (SB203580)), 0.91±0.22; with p38α (S4 Table, L-02, 24 hours, 15μmol/L, no inhibitor), 1.39±0.77.
